Measured values: patent US20070212408A1, “Stable Pharmaceutical Composition Containing Benzimidazole Derivatives and Method of Manufacturing the Same” (priority 2004, published 2007)

Columns and labels:
[1] = Storage stability test of inclusion complexes containing lansoprazole (Test Example 1), HPLC content; type: physicochemical; conditions: 60° C., 75% RH
[2] = Storage stability test of inclusion complexes containing lansoprazole (Test Example 3), HPLC content; type: physicochemical; conditions: 60° C., 75% RH, relative to initial content

Content after 1 wk (%) ([1]; 1 wk, relative to initial content, HPLC): 96.62%
Content after 2 wk (%) ([1]; 2 wk, relative to initial content, HPLC): 76.88%
Color Change after 4 wk ([1]; 4 wk): Dark brown
Content after 4 wk (%) ([1]; 4 wk, relative to initial content, HPLC): Not detected
Content after 1 wk (%) ([2]; 1 wk): 96.62%
Content after 2 wk (%) ([2]; 2 wk): 76.88%
Structure (SMILES): Cc1c(OCC(F)(F)F)ccnc1C[S+]([O-])c1nc2ccccc2[nH]1 (stereo not drawn) [lansoprazole]
